Experimental data: patent US8026110B2, “Combinatorial rosamine library and uses thereof” (New York University, priority 2006, dated 2011)
Entries after “also recorded” stand apart in the source; their conditions may differ.

System: DNA
Experiment: Screening of rosamine library toward 47 analytes: DNA
Format: binding
Settings: screen of 47 analytes, duplicated, FIG. 10B
Experimental: The rosamine derivative compounds were screened toward 47 different analytes that include proteins, polysaccharides, nucleic acids, and metal ions. The stock solution of each dye (50 μL) in HEPES (20 mM, pH=7.4) or PBS (20 mM, pH=7.4) was prepared, and diluted with the each analyte (50 μL, 1.0 mg/mL or 200 μM) in the same buffer solution. The final dye concentration varied from 0.5 μM to 10 μM. The fluorescence intensity fold changes of each dye in the presence of analytes were calculated by comparing the fluorescence intensity at the maximum emission wavelength with/without the analyte.

CCN(CCCN(C)C)c1ccc2c(=O)c3ccc(N)cc3oc2c1 [L, 3-Amino-6-[(3-dimethylamino-propyl)-ethyl-amino]-xanthen-9-one]
fluorescence response to DNA: selective response; also recorded: selective increase of fluorescence intensity
